According to patent US20060014723A1, “Anti-parasitic uses of borinic acid complexes” (priority 2004, published 2006):
Converted amounts (≈) assume the structure as drawn.

What was measured:
[1] = tested on: T. b. rhodesiense STIB 900; test: African sleeping sickness in vitro screening model (Alamar Blue); assay type: cell-based, Trypanosoma brucei rhodesiense; conditions: for IC50: Trypanosoma brucei
Method: Bloodstream from trypomastigotes of the strains (a) and (c) are maintained in Minimal Essential Medium (MEM) with Earle's salts supplemented according to Baltz, et al., (EMBO J. 4:1273-1277, 1985) with 25 mM N-2-hydroxyethylpiperazine-N′-2-ethane-sulphonic acid (HEPES), 1 g/L additional glucose, 1% MEM non-essential amino acids (100×), 0.2 mM 2-mercaptoethanol, 2 mM sodium pyruvate, 0.1 mM hypoxanthine and 15% heat-inactivated horse serum.
All cultures and assays are conducted at 37° C. under an atmosphere of 5% CO2 in air.
After use the stocks are kept at −20° C. For the assays, the compound is further diluted in serum-free culture medium and finally to the appropriate concentration in complete medium without hypoxanthine.
Assays are performed in 96-well microtiter plates, each well containing 100 μL of culture medium with 8×10^3 bloodstream forms with or without a serial drug dilution. The highest concentration for the test compounds is 90 μg/mL. Seven 3-fold drug dilutions are used, covering a range from 90 μg/mL to 0.123 μg/mL. Each drug is tested in duplicate. Active compounds are tested twice for confirmation. The final result is the mean of the four individual IC50 values. After 72 hrs of incubation, the plates are inspected under an inverted microscope to assure growth of the controls and sterile conditions.
(§1) Ten μL of Alamar Blue (12.5 mg resazurin dissolved in 100 mL distilled water) are now added to each well and the plates are incubated for another 2 hours. Then the plates are read with a Spectramax GEMINI XS microplate fluorometer (Molecular Devices Cooperation, Sunnyvale, Calif., USA) using an excitation wavelength of 536 nm and an emission wave length of 588 nm.
IC50 values are determined using the microplate reader software Softmax Pro (Molecular Devices Cooperation, Sunnyvale, Calif., USA).

[2] = tested on: Trypanosoma cruzi Tulahuen C2C4 strain; test: Chagas disease in vitro screening model (beta-galactosidase strain in L-6 cells); assay type: cell-based
Method: Trypanosoma cruzi Tulahuen C2C4 strain, containing the β-galactosidase (Lac Z) gene (Buckner et al., Antimicrob. Agents Chemother 40:2592-2597, 1996) is used for this study.
The infective amastigote and trypomastigote stages are cultivated in L-6 cells (a rat skeletal myoblast cell line) in RPMI 1640 medium supplemented with 2 mM L-glutamine and 10% heat-inactivated fetal bovine serum in 12.5 cm^2 tissue culture flasks. Amastigotes develop intracellularly, differentiate into trypomastigotes, and leave the host cell. These trypomastigotes infect new L-6 cells and are the stages used to initiate an infection in the assay. All cultures and assays are conducted at 37° C. under an atmosphere of 5% CO2 in air.
(§2) After use the stocks are kept at −20° C. For the assays, the compound is further diluted to the appropriate concentration using complete medium.
Assays are performed in sterile 96-well microtiter plates, each well containing 100 μl medium with 2×10^3 L-6 cells. After 24 hours, […] of a trypanosome suspension containing 5×10^3 trypomastigote bloodstream forms from culture are added to the wells. Forty-eight hours later, the medium is removed from the wells and replaced by […] fresh medium, with or without a serial drug dilution. At this point the L-6 cells should be infected with amastigotes and no free trypomastigotes should be in the medium. Seven 3-fold drug dilutions are used, covering a range from 90 μg/mL to 0.123 μg/mL. Each drug is tested in duplicate. Active compounds are tested twice for confirmation. After 96 hours of incubation the plates are inspected under an inverted microscope to assure growth of the controls and sterility.
Then the substrate CPRG/Nonidet (50 μl) is added to all wells. A colour reaction will become visible within 2-6 hours and can be read photometrically at 540 nm. Data are transferred into a graphics program (e.g., EXCEL), sigmoidal inhibition curves determined and IC50 values calculated.

[3] = tested on: Leishmania donovani strain MHOM/ET1671L82; test: Leishmaniasis in vitro screening model (axenic amastigotes, Alamar Blue); assay type: cell-based
Method: The Leishmania donovani strain MHOM/ET1671L82 (obtained from Dr. S. Croft, London School of Hygiene and Tropical Medicine) is used. The strain is maintained in the Syrian Golden hamster. Amastigotes are collected from the spleen of an infected hamster. Amastigotes are grown in axenic culture at 37° C. in SM medium (Cunningham I., J. Protozoal. 24:325-329, 1977) at pH 5.4 supplemented with 10% heat-inactivated fetal bovine serum (FBS) under an atmosphere of 5% CO2 in air.
as §2
Assays are performed in 96-well flat-bottom microtiter plates (Costar, Corning Inc.), each well containing 100 μl of culture medium with 105 amastigotes from axenic culture with or without a serial drug dilution. Concentration of amastigotes is determined in a CASY cell analyzing system (Scharfe System, Reutlingen, Germany). Before the amastigotes are counted, the parasite culture is passed twice through a 22-gauge needle to break up clusters of amastigotes.
The highest concentration for the test compounds is 90 μg/mL. Seven 3-fold dilutions are used, covering a range from […]. Each drug is tested in duplicate. Active compounds are tested twice for confirmation. After 72 hours of incubation, the plates are inspected under an inverted microscope to assure growth of the controls and sterile conditions.
as §1, with “then” for “now”, “wave length” for “wavelength”
Data are analyzed using the microplate reader software Softmax Pro (Molecular Devices Cooperation, Sunnyvale, Calif., USA). Decrease of fluorescence (i.e. inhibition) is expressed as percentage of the fluorescence of control cultures and plotted against the drug concentrations. The IC50 value is calculated from the sigmoidal inhibition curve by the software program.

Structure (SMILES)	IC50 [1] [µg/mL]	IC50 ([2]; Trypanosoma cruzi, TULAHUEN, L6, read-out: T. cruzi IC50) [µg/mL]	IC50 ([3]; Leishmania donovani, read-out: L. donovani IC50) [µg/mL]	T. b. rhodesiense IC50 [1] [µg/mL]	T. cruzi IC50 [2] [µg/mL]	L. donovani IC50 [3] [µg/mL]
CC1(C)COC(c2cccc(B(Oc3cccc4cccnc34)c3cccc(Cl)c3)c2)=N1 [Compound 18, (3-Chlorophenyl)[3-(4,5-dihydro-4,4-dimethyloxazol-2yl)phenyl]borinic acid quinolin-8-yl ester]	1.7 (≈ 3.86 µM)					
Fc1cccc(B(Oc2cccc3cccnc23)c2ccc(Cl)c(Cl)c2)c1 [Compound 46, (3,4-Dichlorophenyl)(3-fluorophenyl)borinic acid quinolin-8-yl ester]	0.51 (≈ 1.29 µM)	0.84 (≈ 2.12 µM)	0.44 (≈ 1.11 µM)			
Cc1cccc(B(Oc2cccc3cccnc23)c2cccc(C)c2)c1 [Compound 86]				0.35	3	0.59
N#Cc1ccc(B(Oc2cccc3cccnc23)c2ccc(C#N)cc2)cc1 [Compound 88]				0.41	1.385	0.76
Clc1ccc(B(Oc2c(I)cc(Cl)c3cccnc23)c2ccc(Cl)cc2)cc1 [Compound 90]				1.4	3.25	0.15
Cc1cc(C)c2cccnc2c1OB(c1ccc(F)cc1)c1ccc(Cl)cc1 [Compound 91]				0.36	4.3	0.94
Fc1ccc(B(Oc2c(Cl)cc(Cl)c3cccnc23)c2ccc(Cl)cc2)cc1 [Compound 92]				1.1	2.55	0.052
C=CB(Oc1cccc2cccnc12)c1cccnc1 [Compound 94]				0.495	2.8	0.55
N#Cc1cccc(B(Oc2cccc3cccnc23)c2ccc(F)c(F)c2)c1 [Compound 95]				0.435	2.95	0.61
Clc1cccc(B(Oc2cccc3cccnc23)c2cccnc2)c1 [Compound 99]				0.345	4.45	0.49
C=CB(Oc1cccc2cccnc12)c1ccc(OC)nc1 [Compound 100]				0.305	3.8	0.33
C=CB(Oc1cccc2cccnc12)c1ccc(F)nc1 [Compound 101]				0.3	3.95	0.34
N#Cc1cccc(B(Oc2cccc3cccnc23)c2cccnc2)c1 [Compound 102]				0.49	4.2	0.37
Cc1ccc(B(Oc2cccc3cccnc23)c2ccco2)cc1Cl [Compound 103]				0.38	4.4	0.35
CN(C)CCOc1ccc(B(Oc2cccc3cccnc23)c2ccc(Cl)cc2)cc1 [Compound 104]				1.24	4.3	0.71
CN(C)Cc1ccc(B(Oc2cccc3cccnc23)c2ccc(Cl)cc2)cc1.Cl [Compound 105]				0.41	4.2	0.72
CN(C)Cc1ccc(B(Oc2cccc3cccnc23)c2ccc(Cl)cc2)cc1.O=C(O)/C=C/C(=O)O [Compound 106]				0.385	4.25	0.69
CSc1cccc(B(Oc2cccc3cccnc23)c2cccc(Cl)c2)c1 [Compound 107]				0.365	4.1	0.42
Cc1cc(Cl)ccc1B(Oc1cccc2cccnc12)c1ccc(Cl)cc1C [Compound 109]				0.405	4.35	0.75
CN(C)Cc1ccc(B(Oc2cccc3cccnc23)c2ccc(F)c(F)c2)cc1 [Compound 110]				0.38	4.7	0.61
CC1CCN(S(=O)(=O)c2ccc(B(Oc3cccc4cccnc34)c3ccc(Cl)cc3)cc2)CC1 [Compound 111]				0.552	4.15	0.74
CN(C)Cc1ccc(B(Oc2cccc3cccnc23)c2cccc(C#N)c2)cc1.O=C(O)/C=C/C(=O)O [Compound 112]				0.44	4.2	0.98
N#Cc1cccc(B(Oc2cccc3cccnc23)c2cc(F)ccc2F)c1 [Compound 113]				0.39	4.25	0.57
Fc1ccc(B(Oc2cccc3cccnc23)c2ccc(Cl)cc2)cc1F [Compound 114]				0.41	4	0.71
C=CB(Oc1cccc2cccnc12)c1ccco1 [Compound 117]				0.295	3.65	0.63
C=CB(Oc1cccc2cccnc12)c1c(C)noc1C [Compound 118]				0.265	3.5	0.44
C=CB(Oc1cccc2cccnc12)c1ccc(CN(C)C)cc1 [Compound 119]				0.51	3.8	0.36
N#Cc1cccc(B(Oc2cccc3cccnc23)c2cc(F)cc(C(F)(F)F)c2)c1 [Compound 121]				0.43	4.95	0.53
C=CB(Oc1cccc2cccnc12)c1ccc(CN(C)C)cc1.Cl [Compound 124]				0.445	3.95	0.3
